Paper PMC6474809 (Cell chemical biology, 2019)

Assays:
H. influenzae NfsB [1] = target: T1, H. influenzae NfsB (Haemophilus influenzae, UniProt Q57431)
H. influenzae NfsB [2] = target: T1, H. influenzae NfsB; test: NAD; type: biochemical
H. influenzae NfsB [3] = target: T1, H. influenzae NfsB; test: Michaelis-Menten kinetics by NADPH oxidation; type: biochemical
[4] = tested on: O=C(N[C@H](CO)[C@H](O)c1ccc([N+](=O)[O-])cc1)C(Cl)Cl; test: purified protein; type: biochemical, Haemophilus influenzae; conditions: FMN, NADPH
H. influenzae NfsB [5] = target: T1, H. influenzae NfsB; test: inhibition of chloramphenicol reduction by purified enzyme, monitored at […] nm; type: biochemical
H. influenzae NfsB [6] = target: T1, H. influenzae NfsB; remark: listed apart in the source
H. influenzae NfsB [7] = target: T1, H. influenzae NfsB; test: TLC of flavin released from heat-denatured purified enzyme; type: binding

T1 sequence (Q57431 whole entry): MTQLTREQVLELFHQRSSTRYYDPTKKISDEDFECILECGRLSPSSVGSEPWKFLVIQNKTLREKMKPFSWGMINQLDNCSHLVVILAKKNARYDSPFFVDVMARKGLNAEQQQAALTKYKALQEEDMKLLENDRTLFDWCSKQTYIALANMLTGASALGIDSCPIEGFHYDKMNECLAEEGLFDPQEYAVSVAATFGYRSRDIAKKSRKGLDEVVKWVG

O=[N+]([O-])c1ccc(O)cc1 [4-nitrophenol]
enzyme turnover monitored at 450 nm; kcat/KM not determined (H. influenzae NfsB [1]): All three of these compounds also acted as substrates, with menadione showing relatively high activity and 4-nitrophenol showing relatively low

NC(=O)C1=CN([C@@H]2O[C@H](COP(=O)(O)OP(=O)(O)OC[C@H]3O[C@@H](n4cnc5c(N)ncnc54)[C@H](OP(=O)(O)O)[C@@H]3O)[C@@H](O)[C@H]2O)C=CC1 [NADPH]
NAD(P)H oxidation at 340 nm with purified enzyme (H. influenzae NfsB [2]): requires NADPH as a cofactor and does not utilize NADH

O=[N+]([O-])c1cccc(O)c1 [3-nitrophenol]
Michaelis-Menten kinetics by NADPH oxidation (kcat/KM) (H. influenzae NfsB [3]): 61.80 mM⁻¹ s⁻¹

H. influenzae NfsB (Haemophilus influenzae Rd KW20)
Km [4]: 500 µM

O=c1oc2ccccc2c(O)c1Cc1c(O)c2ccccc2oc1=O [dicoumarol]
IC50 (H. influenzae NfsB [5]): 120 µM

O=C1CN(/N=C/c2ccc([N+](=O)[O-])o2)C(=O)N1 [nitrofurantoin]
Michaelis-Menten kinetics at 420 nm (kcat/KM) (H. influenzae NfsB [6]): 242.89 mM⁻¹ s⁻¹

Cc1cc2nc3c(=O)[nH]c(=O)nc-3n(C[C@H](O)[C@H](O)[C@H](O)COP(=O)(O)O)c2cc1C [flavin mononucleotide]
TLC of flavin released from heat-denatured purified enzyme (H. influenzae NfsB [7]): tightly binds a flavin cofactor, most likely flavin mononucleotide (FMN)

CC1=CC(=O)c2ccccc2C1=O [menadione]
Michaelis-Menten kinetics by NADPH oxidation (kcat/KM) (H. influenzae NfsB [3]): 79.34 mM⁻¹ s⁻¹
